Test results taken from publication PMC8836179, “Transport Turnover Rates for Human OCT2 and MATE1 Expressed in Chinese Hamster Ovary Cells” (International Journal of Molecular Sciences, 2022).
Several values for one entry are separate records, joined by “and”; a condition that tells them apart may be missing. Identical values can stand only once.

Experiments:
hMATE1 = target: T1, hMATE1 (Homo sapiens, UniProt Q96FL8); assay: MATE1-mediated substrate uptake kinetics and turnover rate in stably expressing CHO cells; format: in vitro ADME; details: for Kt (Ktapp, apparent Michaelis constant) / Jmax (maximum rate of mediated substrate transport): CHO cells stably expressing MATE1, 60-s uptakes, outwardly-directed H+ gradient (ammonia pulse), mean ± SD; for TOR (turnover rate): Jmax divided by cell surface MATE1 abundance (21.9 ± 18.1 fmol cm^−2), CHO cells
T1 construct: expressed in transfected cells; vector pcDNA5/FRT/V5-His TOPO
T1 sequence (Q96FL8 1-570): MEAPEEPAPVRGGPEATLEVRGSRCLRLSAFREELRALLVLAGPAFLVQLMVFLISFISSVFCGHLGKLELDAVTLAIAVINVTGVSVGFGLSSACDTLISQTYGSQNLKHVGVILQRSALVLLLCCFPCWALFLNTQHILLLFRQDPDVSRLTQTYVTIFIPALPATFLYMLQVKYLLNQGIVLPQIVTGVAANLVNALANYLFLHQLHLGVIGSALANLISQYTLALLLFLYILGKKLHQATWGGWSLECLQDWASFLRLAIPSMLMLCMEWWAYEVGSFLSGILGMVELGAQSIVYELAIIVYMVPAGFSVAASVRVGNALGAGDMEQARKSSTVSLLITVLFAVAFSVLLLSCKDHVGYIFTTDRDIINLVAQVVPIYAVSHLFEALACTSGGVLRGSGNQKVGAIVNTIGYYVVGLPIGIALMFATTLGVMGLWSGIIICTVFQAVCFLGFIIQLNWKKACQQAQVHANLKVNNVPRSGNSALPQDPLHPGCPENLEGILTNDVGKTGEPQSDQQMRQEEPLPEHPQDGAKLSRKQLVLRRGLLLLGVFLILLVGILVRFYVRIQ
Method: (§1) The calculation of TOR values involved dividing the maximal rates of substrate transport (Jmax) by the number of cell-surface-expressed transporters (Table 1).
(§2) Chinese hamster ovary (CHO) cells with a single integrated Flp-In recombination site were obtained from Invitrogen (Carlsbad, CA, USA). […] Cells were passaged every 3–4 days and maintained at 37 °C in a humidified environment with 5% CO2. Continued expression of MATE1 and OCT2 in these cell lines was maintained using hygromycin (200 µg/mL; Invitrogen, Carlsbad, CA) selection pressure; continued expression of the Flp-In recombination site in wild-type (WT; non-transporter expressing) CHO cells was maintained using Zeocin (100 µg/mL; Invitrogen) selection pressure. When seeded into 96-well plates (Greiner; VWR Intl., Arlington Heights, IL, USA) for transport assays, cells were grown to confluence in antibiotic-free medium.
(§3) Cells were seeded in 96 well plates with 200 µL of cell media containing 550,000 cells/mL or 275,000 cells/mL, and experiments were performed 24 or 48 h later, respectively. To begin an experiment, media was aspirated and the wells were washed for three cycles over 12 s with 300 µL of room temperature (~23 °C) Waymouth Buffer (WB; 135 mM NaCl, 13 mM HEPES, 2.5 mM CaCl2·2H2O, 1.2 mM MgCl2, 0.8 mM MgSO4·7H2O, 5 mM KCl, and 28 mM D-glucose; pH 7.4) using an automatic microplate washer (Model 405, BioTek, Winooski, VT, USA). For studies of OCT2-mediated transport, uptake was initiated by addition of 60 µL of WB containing radiolabeled substrate and other compounds, as needed. For studies of MATE1-mediated transport, the cells (MATE1-expressing and control cells) were exposed to an ammonia pulse method that we previously used to elevate cytoplasmic [H^+] to a level (~6.0 pH; [61]) that effectively saturates the cytoplasmic face of the exchanger with H^+ [51]. Briefly, cells were preincubated for 20 min (room temp) in buffer containing 20 mM NH4Cl (the first step in establishing an outwardly-directed H^+ gradient; [60]). Plates were then placed in the automatic fluid aspirator/dispenser and rinsed/aspirated three times with room temperature WB (pH 7.4), and transport was initiated by aspirating this medium and replacing it with 60 µL of an NH4Cl-free medium containing labeled substrate, thereby, establishing a trans H^+ gradient, qualitatively similar to the conditions that support MATE1-mediated transport in renal proximal tubules. For all experiments, transport buffers were added using a VIAFLO 96-well multichannel pipet (Integra Biosciences, Hudson, NH, USA). At specified time intervals, transport was terminated by rinsing with three cycles of cold WB (300 µL). Following rinsing and final aspiration, 200 µL of scintillation cocktail (Microscint 20, Perkin-Elmer, Waltham, MA, USA) was added to each well. The plates were sealed (Topseal-A, Perkin Elmer), and after sitting for at least two hours, accumulated radioactivity was determined in a six-channel multiwell scintillation counter (Wallac Trilux 1450 Microbeta, Perkin-Elmer).
(§4) The method described here is a minor modification of that described by Pelis et al..

hOCT2 = target: T2, hOCT2 (Homo sapiens, UniProt O15244); assay: OCT2-mediated substrate uptake kinetics and turnover rate in stably expressing CHO cells; format: in vitro ADME; details: for Jmax (maximum rate of mediated substrate transport) / Kt (Ktapp, apparent Michaelis constant): CHO cells stably expressing OCT2, 60-s uptakes, pH 7.4, mean ± SD; for TOR (turnover rate): Jmax divided by cell surface OCT2 abundance (154 ± 70.7 fmol cm^−2), CHO cells
T2 construct: expressed in transfected cells; vector pcDNA5/FRT/V5-His TOPO
T2 sequence (O15244 1-555): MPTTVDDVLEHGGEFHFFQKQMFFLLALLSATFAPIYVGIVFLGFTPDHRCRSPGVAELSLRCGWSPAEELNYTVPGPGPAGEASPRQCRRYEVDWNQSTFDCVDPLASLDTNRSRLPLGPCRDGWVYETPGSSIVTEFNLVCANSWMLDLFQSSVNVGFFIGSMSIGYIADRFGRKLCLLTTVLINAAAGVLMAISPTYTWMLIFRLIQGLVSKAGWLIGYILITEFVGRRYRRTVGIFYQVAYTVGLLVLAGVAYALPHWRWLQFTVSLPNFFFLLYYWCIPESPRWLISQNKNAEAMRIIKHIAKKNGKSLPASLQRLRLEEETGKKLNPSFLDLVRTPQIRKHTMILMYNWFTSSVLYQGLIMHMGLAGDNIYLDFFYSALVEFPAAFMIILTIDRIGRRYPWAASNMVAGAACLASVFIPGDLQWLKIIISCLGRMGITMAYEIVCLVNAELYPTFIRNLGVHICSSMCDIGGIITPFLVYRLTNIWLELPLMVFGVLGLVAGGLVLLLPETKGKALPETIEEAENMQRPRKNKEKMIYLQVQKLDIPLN
Method: as §1, §2, §3, §4

| SMILES | Kt (Ktapp, apparent Michaelis constant) (hMATE1) | Kt (Ktapp, apparent Michaelis constant) (hMATE1; listed as atenolol) | Jmax (maximum rate of mediated substrate transport) (hMATE1) | TOR (turnover rate) (hMATE1) | Jmax (maximum rate of mediated substrate transport) (hOCT2) | Kt (Ktapp, apparent Michaelis constant) (hOCT2) | TOR (turnover rate) (hOCT2) | Jmax (maximum rate of mediated substrate transport) (hMATE1; listed as metformin) | TOR (turnover rate) (hMATE1; listed as metformin) | Jmax (maximum rate of mediated substrate transport) (hOCT2; listed as metformin) | Kt (Ktapp, apparent Michaelis constant) (hOCT2; listed as metformin) |
| --- | --- | --- | --- | --- | --- | --- | --- | --- | --- | --- | --- |
| CC(C)NCC(O)COc1ccc(CC(N)=O)cc1 (stereo not drawn) [Atenolol, atenolol] | 354 ± 96 µM and 354 ± 95.9 µM | 354 ± 96 µM | – | – | – | – | – | – | – | – | – |
| C[n+]1ccc(-c2ccccc2)cc1 [MPP, 1-Methyl-4-phenylpyridinium] | 66 ± 6.8 µM | – | 241 ± 85 pmol cm^−2 min^−1 and 241 ± 84.9 (n = 4) pmol cm^−2 min^−1 | 297 ± 201 s⁻¹ | 59 ± 6.6 pmol cm^−2 min^−1 and 58.5 ± 6.6 pmol cm^−2 min^−1 and 58 pmol cm^−2 min^−1 and 58.5 ± 6.6 (n = 3) pmol cm^−2 min^−1 | 17.5 ± 2.1 µM | 7.1 ± 2.4 s⁻¹ | – | – | – | – |
| CN(C)C(=N)N=C(N)N [Metformin, metformin] | 664 ± 302 µM | – | 1802 ± 1147 pmol cm^−2 min^−1 and 1802 ± 1147 (n = 4) pmol cm^−2 min^−1 | 1894 ± 1282 s⁻¹ | 509 ± 39 pmol cm^−2 min^−1 and 509 ± 39.0 (n = 2) pmol cm^−2 min^−1 | 427 ± 48 µM and 427 ± 48.0 µM | 70 s⁻¹ | 1802 ± 1147 pmol cm^−2 min^−1 | ~ 1900 s^−1 | 509 ± 39 pmol cm^−2 min^−1 and 509 pmol cm^−2 min^−1 | 427 ± 48 µM |
